Laboratory results as given in ChEMBL document CHEMBL1201862, “PubChem BioAssay data set” (2004).
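Test compounds were applied to cells in 96-well plates for 48 hours at 5 doses. The concentration for 50% growth inhibition is given as GI50.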 Active and inactive are the calls of the source. Rule as the data show it: active = GI50 up to about 1.1 µM and inactive = higher.

Legend:
Assay in all cases: NCI-60 cell line screen, 48 h
BT-549 = test system: BT-549
IGROV-1 = test system: IGROV-1
HCT-15 = test system: HCT-15
CCRF-CEM = test system: CCRF-CEM
Malme-3M = test system: Malme-3M
EKVX = test system: EKVX
HCT-116 = test system: HCT-116
M14 = test system: M14
OVCAR-8 = test system: OVCAR-8
NCI-H460 = test system: NCI-H460
SK-OV-3 = test system: SK-OV-3
T47D = test system: T47D
SF-268 = test system: SF-268
K562 = test system: K562
DU-145 = test system: DU-145
HOP-92 = test system: HOP-92
ACHN = test system: ACHN
SK-MEL-28 = test system: SK-MEL-28
SF-539 = test system: SF-539
Hs-578T = test system: Hs-578T
MCF7 = test system: MCF7
MDA-N = test system: MDA-N
KM12 = test system: KM12
SNB-19 = test system: SNB-19
U-251 = test system: U-251
LOX IMVI = test system: LOX IMVI
SK-MEL-2 = test system: SK-MEL-2
MDA-MB-435 = test system: MDA-MB-435
SW-620 = test system: SW-620
SK-MEL-5 = test system: SK-MEL-5
NCI-H226 = test system: NCI-H226
OVCAR-3 = test system: OVCAR-3
A549 = test system: A549
RXF 393 = test system: RXF 393
786-0 = test system: 786-0
HT-29 = test system: HT-29
MOLT-4 = test system: MOLT-4
HL-60 = test system: HL-60
TK-10 = test system: TK-10
NCI-H522 = test system: NCI-H522
NCI-H23 = test system: NCI-H23
OVCAR-5 = test system: OVCAR-5
A498 = test system: A498
CAKI-1 = test system: CAKI-1
NCI/ADR-RES = test system: NCI/ADR-RES
UO-31 = test system: UO-31
OVCAR-4 = test system: OVCAR-4
COLO 205 = test system: COLO 205
PC-3 = test system: PC-3
RPMI-8226 = test system: RPMI-8226
SF-295 = test system: SF-295
MDA-MB-231 = test system: MDA-MB-231
HOP-62 = test system: HOP-62
SN12C = test system: SN12C
SR = test system: SR
UACC-257 = test system: UACC-257
UACC-62 = test system: UACC-62

Q: What does the source list for `Cc1cc(C)c2c(=O)n(CN3CC4Nc5ccccc5C4C3)sc2n1` (stereo not given)?
A: GI50 (BT-549): 31.2 µM (inactive); GI50 (IGROV-1): > 100 µM (inactive); GI50 (HCT-15): 21 µM; GI50 (CCRF-CEM): 22 µM (inactive); GI50 (Malme-3M): 11.7 µM (inactive); GI50 (EKVX): 26.9 µM (inactive); GI50 (HCT-116): 20.4 µM (inactive); GI50 (M14): 23.8 µM (inactive); GI50 (OVCAR-8): 21.2 µM (inactive); GI50 (NCI-H460): 20.9 µM (inactive); GI50 (SK-OV-3): 56 µM (inactive); GI50 (T47D): 81.8 µM (inactive); GI50 (SF-268): 14.8 µM (inactive); GI50 (K562): 27.9 µM (inactive); GI50 (DU-145): 21.1 µM (inactive); GI50 (HOP-92): 38.5 µM (inactive); GI50 (ACHN): 17.9 µM (inactive); GI50 (SK-MEL-28): 22.1 µM (inactive); GI50 (SF-539): 19.9 µM (inactive); GI50 (Hs-578T): 16.6 µM (inactive); GI50 (MCF7): 32.1 µM (inactive); GI50 (MDA-N): 19.5 µM (inactive); GI50 (KM12): > 100 µM (inactive); GI50 (SNB-19): 65.9 µM (inactive); GI50 (U-251): 31.3 µM (inactive); GI50 (LOX IMVI): 21.8 µM (inactive); GI50 (SK-MEL-2): 22.5 µM (inactive); GI50 (MDA-MB-435): 19.5 µM (inactive); GI50 (SW-620): 22.8 µM (inactive); GI50 (SK-MEL-5): 30.2 µM (inactive); GI50 (NCI-H226): 20.8 µM (inactive); GI50 (OVCAR-3): 33.5 µM (inactive); GI50 (A549): 38.5 µM (inactive); GI50 (RXF 393): 22.8 µM (inactive); GI50 (786-0): 17.2 µM (inactive); GI50 (HT-29): 21.3 µM (inactive); GI50 (MOLT-4): 29.6 µM (inactive); GI50 (HL-60): 25.6 µM (inactive); GI50 (TK-10): 19.4 µM (inactive); GI50 (NCI-H522): 4.19 µM (inactive); GI50 (NCI-H23): 22 µM (inactive); GI50 (OVCAR-5): 21 µM (inactive); GI50 (A498): 37.9 µM (inactive); GI50 (CAKI-1): 21 µM (inactive); GI50 (NCI/ADR-RES): 35.6 µM (inactive); GI50 (UO-31): 16.3 µM (inactive); GI50 (OVCAR-4): 21 µM (inactive); GI50 (COLO 205): 26.1 µM (inactive); GI50 (PC-3): 21.3 µM (inactive); GI50 (RPMI-8226): 11.3 µM (inactive); GI50 (SF-295): > 100 µM (inactive); GI50 (MDA-MB-231): 18.7 µM (inactive); GI50 (HOP-62): 35.6 µM (inactive); GI50 (SN12C): 30.7 µM (inactive); GI50 (SR): 23.6 µM (inactive); GI50 (UACC-257): 15.5 µM (inactive); GI50 (UACC-62): 23.8 µM (inactive)

Q: Which results are given for `N#Cc1cc(N(CCCl)CCCl)c([N+](=O)[O-])cc1[N+](=O)[O-]`?
A: GI50 (BT-549): > 100 µM (inactive); GI50 (IGROV-1): > 100 µM (inactive); GI50 (HCT-15): > 100 µM; GI50 (CCRF-CEM): 19.2 µM (inactive); GI50 (Malme-3M): 60.8 µM (inactive); GI50 (EKVX): > 100 µM (inactive); GI50 (HCT-116): > 100 µM (inactive); GI50 (M14): > 100 µM (inactive); GI50 (OVCAR-8): > 100 µM (inactive); GI50 (NCI-H460): 18.6 µM (inactive); GI50 (SK-OV-3): > 100 µM (inactive); GI50 (T47D): 11.4 µM (inactive); GI50 (SF-268): > 100 µM (inactive); GI50 (K562): > 100 µM (inactive); GI50 (DU-145): 32.4 µM (inactive); GI50 (HOP-92): > 100 µM (inactive); GI50 (ACHN): 18.1 µM (inactive); GI50 (SK-MEL-28): > 100 µM (inactive); GI50 (SF-539): > 100 µM (inactive); GI50 (Hs-578T): > 100 µM (inactive); GI50 (MCF7): 86.3 µM (inactive); GI50 (MDA-N): > 100 µM (inactive); GI50 (KM12): > 100 µM (inactive); GI50 (SNB-19): > 100 µM (inactive); GI50 (U-251): > 100 µM (inactive); GI50 (LOX IMVI): 98.2 µM (inactive); GI50 (SK-MEL-2): > 100 µM (inactive); GI50 (MDA-MB-435): > 100 µM (inactive); GI50 (SW-620): > 100 µM (inactive); GI50 (SK-MEL-5): > 100 µM (inactive); GI50 (OVCAR-3): > 100 µM (inactive); GI50 (A549): 83.8 µM (inactive); GI50 (786-0): 81.1 µM (inactive); GI50 (HT-29): > 100 µM (inactive); GI50 (MOLT-4): 24 µM (inactive); GI50 (HL-60): 22.3 µM (inactive); GI50 (TK-10): > 100 µM (inactive); GI50 (NCI-H522): 87.9 µM (inactive); GI50 (NCI-H23): > 100 µM (inactive); GI50 (OVCAR-5): > 100 µM (inactive); GI50 (A498): > 100 µM (inactive); GI50 (CAKI-1): 11.1 µM (inactive); GI50 (NCI/ADR-RES): > 100 µM (inactive); GI50 (UO-31): > 100 µM (inactive); GI50 (OVCAR-4): > 100 µM (inactive); GI50 (COLO 205): > 100 µM (inactive); GI50 (PC-3): > 100 µM (inactive); GI50 (RPMI-8226): 38.2 µM (inactive); GI50 (SF-295): > 100 µM (inactive); GI50 (MDA-MB-231): > 100 µM (inactive); GI50 (HOP-62): > 100 µM (inactive); GI50 (SN12C): 48 µM (inactive); GI50 (SR): 2.89 µM (inactive); GI50 (UACC-257): > 100 µM (inactive); GI50 (UACC-62): > 100 µM (inactive)

Q: Which GI50 (BT-549) does the source give for `Oc1ccc2oc3c(O)c4ccccc4cc3c2c1` here?
A: 5.61 µM (inactive)

Q: And the GI50 (IGROV-1)?
A: 0.851 µM (active)

Q: What about the GI50 (HCT-15) of the same compound?
A: 1.98 µM

Q: What about the GI50 (CCRF-CEM) of the same compound?
A: 1.5 µM (inactive)

Q: What about the GI50 (Malme-3M) of the same compound?
A: 11.4 µM (inactive)

Q: What about the GI50 (HCT-116) of the same compound?
A: 0.296 µM (active)

Q: And the GI50 (M14)?
A: 3.49 µM (inactive)

Q: And the GI50 (OVCAR-8)?
A: 4.56 µM (inactive)

Q: And the GI50 (NCI-H460)?
A: 23.5 µM (inactive)

Q: And the GI50 (SK-OV-3)?
A: 16.2 µM (inactive)

Q: What about the GI50 (T47D) of the same compound?
A: 20.3 µM (inactive)

Q: What about the GI50 (SF-268) of the same compound?
A: 5.87 µM (inactive)

Q: And the GI50 (K562)?
A: 0.0632 µM (active)

Q: And the GI50 (DU-145)?
A: 3.27 µM (inactive)

Q: What about the GI50 (HOP-92) of the same compound?
A: 10.7 µM (inactive)

Q: And the GI50 (ACHN)?
A: 2.12 µM (inactive)

Q: And the GI50 (SK-MEL-28)?
A: 7.24 µM (inactive)

Q: And the GI50 (SF-539)?
A: 1.75 µM (inactive)

Q: What about the GI50 (Hs-578T) of the same compound?
A: 23.2 µM (inactive)

Q: What about the GI50 (MCF7) of the same compound?
A: 3.33 µM (inactive)

Q: What about the GI50 (MDA-N) of the same compound?
A: 0.927 µM (active)

Q: And the GI50 (KM12)?
A: 2.22 µM (inactive)

Q: And the GI50 (SNB-19)?
A: 83.4 µM (inactive)

Q: What about the GI50 (U-251) of the same compound?
A: 4.86 µM (inactive)

Q: What about the GI50 (LOX IMVI) of the same compound?
A: 4.08 µM (inactive)

Q: And the GI50 (SK-MEL-2)?
A: 7.91 µM (inactive)

Q: What about the GI50 (MDA-MB-435) of the same compound?
A: 0.948 µM (active)

Q: And the GI50 (SW-620)?
A: 0.69 µM (active)

Q: And the GI50 (SK-MEL-5)?
A: 2.85 µM (inactive)

Q: What about the GI50 (OVCAR-3) of the same compound?
A: 3.53 µM (inactive)

Q: What about the GI50 (A549) of the same compound?
A: 24.9 µM (inactive)

Q: And the GI50 (RXF 393)?
A: 2.44 µM (inactive)

Q: What about the GI50 (786-0) of the same compound?
A: 5.93 µM (inactive)

Q: And the GI50 (HT-29)?
A: 17.5 µM (inactive)

Q: What about the GI50 (MOLT-4) of the same compound?
A: 1.07 µM (active)

Q: And the GI50 (HL-60)?
A: 2.28 µM (inactive)

Q: What about the GI50 (TK-10) of the same compound?
A: 4.75 µM (inactive)

Q: And the GI50 (NCI-H522)?
A: 1.01 µM (active)

Q: What about the GI50 (NCI-H23) of the same compound?
A: 10.6 µM (inactive)

Q: And the GI50 (A498)?
A: 2.45 µM (inactive)

Q: What about the GI50 (CAKI-1) of the same compound?
A: 5.32 µM (inactive)

Q: And the GI50 (NCI/ADR-RES)?
A: 3.03 µM (inactive)

Q: And the GI50 (UO-31)?
A: 0.695 µM (active)

Q: And the GI50 (OVCAR-4)?
A: 1.93 µM (inactive)

Q: What about the GI50 (COLO 205) of the same compound?
A: 10.6 µM (inactive)

Q: And the GI50 (PC-3)?
A: 4.06 µM (inactive)

Q: What about the GI50 (RPMI-8226) of the same compound?
A: 1.31 µM (inactive)

Q: And the GI50 (MDA-MB-231)?
A: 12.8 µM (inactive)

Q: What about the GI50 (HOP-62) of the same compound?
A: 35.2 µM (inactive)

Q: What about the GI50 (SN12C) of the same compound?
A: 2.36 µM (inactive)

Q: What about the GI50 (SR) of the same compound?
A: 1.72 µM (inactive)

Q: And the GI50 (UACC-257)?
A: 52 µM (inactive)

Q: And the GI50 (UACC-62)?
A: 0.121 µM (active)
